Results reported in ChEMBL document CHEMBL5036317, “Identification of Unique Quinazolone Thiazoles as Novel Structural Scaffolds for Potential Gram-Negative Bacterial Conquerors” (J Med Chem, 2021).
Values after ≈ are worked out from the molar mass of the structure shown. Active and inactive are the calls of the source. The rule behind the calls is not given here.

Key:
Staphylococcus aureus [1] = experiment: Antibacterial activity against Staphylococcus aureus assessed as inhibition of bacterial growth measured after 24 hrs by two-fold serial dilution method; format: functional
Cell membrane [2] = experiment: Induction of outer membrane permeabilization in Pseudomonas aeruginosa assessed as increase in NPN uptake by measuring increase in fluorescence intensity incubated for 5 mins by NPN-dye based fluorescence analysis
Escherichia coli [3] = experiment: Antibacterial activity against Escherichia coli ATCC 25922 assessed as inhibition of bacterial growth measured after 24 hrs by two-fold serial dilution method; format: functional
Pseudomonas aeruginosa [4] = experiment: Induction of ROS generation in Pseudomonas aeruginosa measured after 6 hrs by DCFH-DA staining based assay; format: functional, organism-based
Cell membrane [5] = experiment: Induction of cell membrane disruption in Escherichia coli assessed as increase in protein leakage at 1 to 6 times MIC measured after 6 hrs by Bradford assay
Staphylococcus aureus [6] = experiment: Antibacterial activity against Staphylococcus aureus ATCC 25923 assessed as inhibition of bacterial growth measured after 24 hrs by two-fold serial dilution method; format: functional
Calf thymus DNA [7] = experiment: Binding affinity to calf thymus DNA assessed as reduction in acridine orange-DNA complex formation by competitive binding assay; details: Bos taurus
Cell membrane [8] = experiment: Induction of outer membrane permeabilization in Escherichia coli assessed as increase in NPN uptake by measuring increase in fluorescence intensity incubated for 5 mins by NPN-dye based fluorescence analysis
Pseudomonas aeruginosa [9] = experiment: Antibacterial activity against Pseudomonas aeruginosa assessed as inhibition of bacterial growth measured after 24 hrs by two-fold serial dilution method; format: functional
Cell membrane [10] = experiment: Induction of cytoplasmic membrane depolarization in Pseudomonas aeruginosa assessed as increase in fluorescence intensity at 0 to 6 times MIC by DiSC3-5 dye based fluorescence assay; format: subcellular
Pseudomonas aeruginosa [11] = experiment: Antibacterial activity against Pseudomonas aeruginosa assessed as drug resistance treated for 16 serial passages and measured every 24 hrs; format: functional, organism-based
Staphylococcus aureus [12] = experiment: Antibacterial activity against Staphylococcus aureus ATCC 29213 assessed as inhibition of bacterial growth measured after 24 hrs by two-fold serial dilution method; format: functional
Escherichia coli [13] = experiment: Antibacterial activity against Escherichia coli assessed as drug resistance treated for 16 serial passages and measured every 24 hrs; format: functional, organism-based
Cell membrane [14] = experiment: Induction of cytoplasmic membrane depolarization in Escherichia coli assessed as increase in fluorescence intensity at 0 to 6 times MIC by DiSC3-5 dye based fluorescence assay; format: subcellular
Escherichia coli [15] = experiment: Induction of ROS generation in Escherichia coli measured after 6 hrs by DCFH-DA staining based assay; format: functional, organism-based
Cell membrane [16] = experiment: Induction of inner membrane permeabilization in Pseudomonas aeruginosa assessed as increase in PI uptake by measuring increase in fluorescence intensity incubated for 30 mins by propidium iodide staining based fluorescence analysis
Pseudomonas aeruginosa [17] = experiment: Antibacterial activity against Pseudomonas aeruginosa assessed as reduction in metabolic activity at 1 to 6 times MIC measured after 6 hrs by alamar blue assay; format: functional, organism-based
Staphylococcus aureus [18] = experiment: Antibacterial activity against methicillin-resistant Staphylococcus aureus assessed as inhibition of bacterial growth measured after 24 hrs by two-fold serial dilution method; format: functional
Pseudomonas aeruginosa [19] = experiment: Antibacterial activity against Pseudomonas aeruginosa ATCC 27853 assessed as inhibition of bacterial growth measured after 24 hrs by two-fold serial dilution method; format: functional
Enterococcus faecalis = experiment: Antibacterial activity against Enterococcus faecalis assessed as inhibition of bacterial growth measured after 24 hrs by two-fold serial dilution method; format: functional
Cell membrane [20] = experiment: Induction of cell membrane disruption in Pseudomonas aeruginosa assessed as reduction in LDH activity at 1 to 4 times MIC measured after 6 hrs; format: subcellular
Cell membrane [21] = experiment: Induction of cell membrane disruption in Escherichia coli assessed as reduction in LDH activity at 1 to 4 times MIC measured after 6 hrs; format: subcellular
Calf thymus DNA [22] = experiment: Binding affinity to calf thymus DNA assessed as assessed as compound-DNA complex formation by measuring hypochromic shift by UV-visible absorption spectrophotometric method; format: tissue-based; details: Bos taurus
[23] = Haemolytic activity in human erythrocytes incubated for 2 hrs; format: ADME, cell-based, Erythrocyte
Pseudomonas aeruginosa [24] = experiment: Antibiofilm activity against Pseudomonas aeruginosa assessed as reduction in biofilm biomass at 0 to 6 times MIC measured after 24 hrs by crystal violet staining based assay; format: functional, organism-based
Klebsiella pneumoniae = experiment: Antibacterial activity against Klebsiella pneumoniae assessed as inhibition of bacterial growth measured after 24 hrs by two-fold serial dilution method; format: functional
Acinetobacter baumannii = experiment: Antibacterial activity against Acinetobacter baumanii assessed as inhibition of bacterial growth measured after 24 hrs by two-fold serial dilution method; format: functional
Escherichia coli [25] = experiment: Antibacterial activity against Escherichia coli assessed as reduction in metabolic activity at 1 to 6 times MIC measured after 6 hrs by alamar blue assay; format: functional, organism-based
Cell membrane [26] = experiment: Induction of inner membrane permeabilization in Escherichia coli assessed as increase in PI uptake by measuring increase in fluorescence intensity incubated for 30 mins by propidium iodide staining based fluorescence analysis
Cell membrane [27] = experiment: Induction of cell membrane disruption in Pseudomonas aeruginosa assessed as increase in protein leakage at 1 to 6 times MIC measured after 6 hrs by Bradford assay
Escherichia coli [28] = experiment: Antibacterial activity against Escherichia coli assessed as inhibition of bacterial growth measured after 24 hrs by two-fold serial dilution method; format: functional
Escherichia coli [29] = experiment: Antibiofilm activity against Escherichia coli assessed as reduction in biofilm biomass at 0 to 6 times MIC measured after 24 hrs by crystal violet staining based assay; format: functional, organism-based
Escherichia coli [30] = experiment: Antibacterial activity against Escherichia coli assessed as drug resistance by measuring fold change in MIC treated for 16 serial passages and measured every 24 hrs; format: functional
Pseudomonas aeruginosa [31] = experiment: Antibacterial activity against Pseudomonas aeruginosa assessed as drug resistance by measuring fold change in MIC treated for 16 serial passages and measured every 24 hrs; format: functional

Structure (SMILES): O=C(/C(=C/c1ccc(C(F)(F)F)cc1)n1cnc2cc(Cl)ccc2c1=O)c1nccs1
- MIC (Staphylococcus aureus [1]): 32 µg/mL (≈ 69.3 µM)
- Activity (Cell membrane [2]): Dose-Dependent Effect
- MIC (Escherichia coli [3]): 2 µg/mL (≈ 4.33 µM)
- Activity (Pseudomonas aeruginosa [4]): Dose-Dependent Effect
- Activity (Cell membrane [5]): Active
- MIC (Staphylococcus aureus [6]): 2 µg/mL (≈ 4.33 µM)
- Activity (Calf thymus DNA [7]): Active
- Activity (Cell membrane [8]): Dose-Dependent Effect
- MIC (Pseudomonas aeruginosa [9]): 1 µg/mL (≈ 2.17 µM)
- Activity (Cell membrane [10]): Active
- Activity (Pseudomonas aeruginosa [11]): inactive
- MIC (Staphylococcus aureus [12]): 1 µg/mL (≈ 2.17 µM)
- Activity (Escherichia coli [13]): inactive
- Activity (Cell membrane [14]): Active
- Activity (Escherichia coli [15]): Dose-Dependent Effect
- Activity (Cell membrane [16]): Dose-Dependent Effect
- Activity (Pseudomonas aeruginosa [17]): Active
- MIC (Staphylococcus aureus [18]): 4 µg/mL (≈ 8.66 µM)
- MIC (Pseudomonas aeruginosa [19]): 1 µg/mL (≈ 2.17 µM)
- MIC (Enterococcus faecalis): 2 µg/mL (≈ 4.33 µM)
- Activity (Cell membrane [20]): Active
- Activity (Cell membrane [21]): Active
- Activity (Calf thymus DNA [22]): Active
- HC50 at 2 h [23]: > 250 µg/mL
- Activity (Pseudomonas aeruginosa [24]): Active
- MIC (Klebsiella pneumoniae): 1 µg/mL (≈ 2.17 µM)
- MIC (Acinetobacter baumannii): 8 µg/mL (≈ 17.3 µM)
- Activity (Escherichia coli [25]): Active
- Activity (Cell membrane [26]): Dose-Dependent Effect
- Activity (Cell membrane [27]): Active
- MIC (Escherichia coli [28]): 1 µg/mL (≈ 2.17 µM)
- Activity (Escherichia coli [29]): Active

Structure (SMILES): O=C(/C(=C/c1ccc(Cl)cc1Cl)n1cnc2cc(Cl)ccc2c1=O)c1nccs1
- MIC (Staphylococcus aureus [1]): 32 µg/mL (≈ 69.2 µM)
- MIC (Escherichia coli [3]): 2 µg/mL (≈ 4.32 µM)
- MIC (Staphylococcus aureus [6]): 1 µg/mL (≈ 2.16 µM)
- MIC (Pseudomonas aeruginosa [9]): 8 µg/mL (≈ 17.3 µM)
- MIC (Staphylococcus aureus [12]): 2 µg/mL (≈ 4.32 µM)
- MIC (Staphylococcus aureus [18]): 8 µg/mL (≈ 17.3 µM)
- MIC (Pseudomonas aeruginosa [19]): 1 µg/mL (≈ 2.16 µM)
- MIC (Enterococcus faecalis): 8 µg/mL (≈ 17.3 µM)
- HC50 at 2 h [23]: 176 µg/mL
- MIC (Klebsiella pneumoniae): 1 µg/mL (≈ 2.16 µM)
- MIC (Acinetobacter baumannii): 16 µg/mL (≈ 34.6 µM)
- MIC (Escherichia coli [28]): 2 µg/mL (≈ 4.32 µM)

Structure (SMILES): CN(C)/C=C(/C(=O)c1nccs1)n1cnc2cc(Cl)ccc2c1=O
- MIC (Staphylococcus aureus [1]): 512 µg/mL (≈ 1420 µM)
- MIC (Escherichia coli [3]): 16 µg/mL (≈ 44.3 µM)
- MIC (Staphylococcus aureus [6]): 256 µg/mL (≈ 709 µM)
- MIC (Pseudomonas aeruginosa [9]): 16 µg/mL (≈ 44.3 µM)
- MIC (Staphylococcus aureus [12]): 512 µg/mL (≈ 1420 µM)
- MIC (Staphylococcus aureus [18]): 512 µg/mL (≈ 1420 µM)
- MIC (Pseudomonas aeruginosa [19]): 16 µg/mL (≈ 44.3 µM)
- MIC (Enterococcus faecalis): 128 µg/mL (≈ 355 µM)
- HC50 at 2 h [23]: 204 µg/mL
- MIC (Klebsiella pneumoniae): 128 µg/mL (≈ 355 µM)
- MIC (Acinetobacter baumannii): 128 µg/mL (≈ 355 µM)
- MIC (Escherichia coli [28]): 512 µg/mL (≈ 1420 µM)

Structure (SMILES): CCn1cc(C(=O)O)c(=O)c2cc(F)c(N3CCNCC3)cc21 [NORFLOXACIN]
- MIC (Staphylococcus aureus [1]): 4 µg/mL (≈ 12.5 µM)
- MIC (Escherichia coli [3]): 2 µg/mL (≈ 6.26 µM)
- MIC (Staphylococcus aureus [6]): 2 µg/mL (≈ 6.26 µM)
- MIC (Pseudomonas aeruginosa [9]): 4 µg/mL (≈ 12.5 µM)
- MIC (Staphylococcus aureus [12]): 1 µg/mL (≈ 3.13 µM)
- MIC (Staphylococcus aureus [18]): 8 µg/mL (≈ 25.1 µM)
- MIC (Pseudomonas aeruginosa [19]): 0.5 µg/mL (≈ 1.57 µM)
- MIC (Enterococcus faecalis): 4 µg/mL (≈ 12.5 µM)
- fold change (FC) (Escherichia coli [30]): 32
- MIC (Klebsiella pneumoniae): 2 µg/mL (≈ 6.26 µM)
- fold change (FC) (Pseudomonas aeruginosa [31]): 32
- MIC (Acinetobacter baumannii): 2 µg/mL (≈ 6.26 µM)
- MIC (Escherichia coli [28]): 4 µg/mL (≈ 12.5 µM)
